Experimental data reported in ChEMBL document CHEMBL4033745, “3D-QSAR (CoMFA, CoMSIA), molecular docking and molecular dynamics simulations study of 6-aryl-5-cyano-pyrimidine derivatives to explore the structure requirements of LSD1 inhibitors” (Bioorg Med Chem Lett, 2017).

biological target: Lysine-specific histone demethylase 1A (Homo sapiens, UniProt O60341); assay: Inhibition of LSD1 (unknown origin); conditions: read-out: IC50

Row | IC50 | SMILES
1 | 125 µM | C#CCSc1nc(Nc2ccc([N+](=O)[O-])cc2)c(C#N)c(-c2ccccc2)n1
2 | 125 µM | N#Cc1c(Cl)nc(SCc2cn(Cc3ccccc3Cl)nn2)nc1-c1ccc(Cl)cc1
3 | 125 µM | C#CCSc1nc(Cl)c(C#N)c(-c2ccc([N+](=O)[O-])cc2)n1
4 | 125 µM | C#CCSc1nc(Nc2ccc(F)cc2)c(C#N)c(-c2ccccc2)n1
5 | 125 µM | COc1cc(-c2nc(SCc3ccc(F)cc3)nc(NNC(N)=S)c2C#N)cc(OC)c1OC
6 | 125 µM | C#CCSc1nc(Nc2ccc(Cl)cc2)c(C#N)c(-c2ccccc2)n1

same assay, conditions: read-out: pIC50 (converted)

Row | IC50 | SMILES
7 | 123 µM | C#CCSc1nc(Nc2ccc([N+](=O)[O-])cc2)c(C#N)c(-c2ccccc2)n1
